Consider eleven molecules from patent US20090018142A9, “Use of phosphatases to treat tumors overexpressing N-CoR” (priority 2006, published 2009).

One series has as its system GBM cell line U373. Description: cells. The following applies: for Inhibition of U373 growth as single agent (in words): individual treatment, 7 days; for Concentration range of activity against U373 (in words): single agent (FIG. 5A, 5B). The format is cell-based, human. On the procedure: To identify novel therapeutic targets for the treatment of glioblastoma multiforme (GBM), cantharidin analogs were evaluated for their ability to inhibit growth of glioblastoma multiforme cells. Specifically, GBM cell line U373 was used in evaluations.
The total number of cells is counted in the triplicate cultures at each dose and in controls after 7 days and the average number of cells and the standard deviation is determined.
The amount of inhibition of GBM cell growth is expressed as the proportion of the number of cells in the experimental dishes compared to the number of cells in control dishes containing only the drug vehicle and culture medium. The average percent of control is plotted and bracketed by one standard deviation calculated from the triplicate measurements.

The subject of series [1] is breast cancer line, MCF-7. Description: Inhibition of growth of breast cancer line MCF-7, single agents, 7 days. The settings on record: for Inhibition of MCF-7 growth (in words): individual doses, 7 days (FIG. 6C); for Sensitivity of MCF-7 compared with U373 (in words): single agents, 7 days (FIG. 6C vs 6B). The format is cell-based. The source says:
(§1) To determine whether there is tumor type specificity of the inhibitory properties of PP2A inhibitors, retinoic acid and Trichostatin A, we measured their inhibitory effects as single agents against the GBM line U373, a breast cancer line, MCF-7 (obtained from ATCC) and a kidney cancer cell line, UMRC (UMRC obtained by Dr. Zhuang, NINDS, NIH from the Intramural Research Support Program, SAIC, National Cancer Institute, Frederick Cancer Research and Development Center).

In series [2] the test system is kidney cancer cell line, UMRC. Put plainly: Inhibition of growth of kidney cancer cell line UMRC, single agents, 7 days. The format is cell-based. The settings on record: 7 days (FIG. 6A vs 6B).
Excerpt: as §1

For the next series, the system named is PP2A. The settings on record: cited from earlier work.
A further series deals with PP1. The settings on record: cited from earlier work.
For series [3] the following is noted: cited from earlier work; for Urinary tract toxicity (in words): in vivo.
Another series concerns primary hepatoma. The following applies: cited from earlier work.
The subject of series [4] is white blood cell production. The following applies: patients and mice; cited from earlier work.
Another series relates to GBM cell line U343 MG-A. Description: Growth of GBM cell line U343 MG-A, cell counts over 16 days. It is filed as cell-based, human. The settings on record: 50 μM retinoic acid and/or 10 nM okadaic acid. On the procedure: Finally, the GBM cell line U343 MG-A was treated with 50 μM of retinoic acid (RA) and/or 10 nM of okadaic acid (OA), a protein phosphatase-1 inhibitor.
Three cultures for each of four treatments were grown for 16 days with cell counts obtained at baseline and for each of the eight even numbered days. Log transformations were applied to the cell counts, and repeated measures of analysis of variance model used to evaluate the treatment differences over time. Pair wise treatment comparisons used Sidak's statistic to account for multiple testing.

The conditions of series [5]: for weeks; cited from earlier work.
Series [6] relates to brain tumor stem cells (BTSC) isolated from GBM. Description: Differentiation of cultured brain tumor stem cells treated with CNTF (GFAP expression, N-CoR localization). It is filed as cell-based. On the procedure:
(Hughes et al. (1988)) The BTSCs cells were then assessed for GFAP expression along with subcellular N—CoR localization.

Setting [7] is: Homo sapiens, U373 MG, 168 h, read-out: IC50, concentration that inhibited brain tumor cell proliferation by 50%.
The mark [8] stands for this setting: U373, 7 days exposure, estimated from graphic plots (FIG. 3), read-out: IC50, concentration that inhibited brain tumor cell proliferation by 50%.

Entries after “also recorded” stand apart in the source; their conditions may differ. Where two headings read alike, the source gives them in different places.

Take `CC1=C(/C=C/C(C)=C/C=C/C(C)=C/C(=O)O)C(C)(C)CCC1` [ATRA, all-trans retinoic acid]: the IC50 with GBM cell line U373 (Homo sapiens, U373 MG, 168 h, U373, 7 days (FIG. 4A), read-out: IC50 of ATRA alone) is more than 50 µM. For the same molecule, in the series with GBM cell line U373 (Homo sapiens, U373 MG, U373, ATRA 25 uM alone, read-out: Percent of Control, Observed), the activity at 25 µM came to 77%. Further, in the series on GBM cell line U373 (U373), the “Inhibition of U373 growth as single agent (in words)” value (from here on “Inhibition of U373 growth”) was “modest inhibition of growth”. In addition, in series [1], the “Inhibition of MCF-7 growth (in words)” value is recorded as “showed an inhibition in growth” and the “Sensitivity of MCF-7 compared with U373 (in words)” value is “as sensitive as U373”. The “Sensitivity of UMRC compared with U373 (in words)” value in series [2] is given as “less sensitive”.

As to `CC1=C(/C=C/C(C)=C/C=C/C(C)=C\C(=O)O)C(C)(C)CCC1` [Cis-RA, 13-cis retinoic acid], the “Percent of Control, Observed” value in the series with GBM cell line U373 (U373, Cis-RA 50 μM alone) was 93.3 +/− 2.2% of Control. In the series on GBM cell line U373 (U373), the “Inhibition of U373 growth” value is reported as “modest inhibition of growth”.

Consider `CC(/C=C/C(=O)NO)=C\[C@@H](C)C(=O)c1ccc(N(C)C)cc1` [TSA, Trichostatin A], for which, in the series with GBM cell line U373 (U373, TSA 0.033 μM (0.01 μg/ml) alone), the “Percent of Control, Observed” value was 71.6 +/− 0.4% of Control. In addition, in the series with GBM cell line U373 (U373), the “Inhibition of U373 growth” value is reported as “dose dependent activity” and the “Concentration range of activity against U373 (in words)” value is on record as “active at nM concentrations”. Besides, in [1], the “Inhibition of MCF-7 growth (in words)” value is “showed an inhibition in growth” and the “Sensitivity of MCF-7 compared with U373 (in words)” value was “as sensitive as U373”. For the same molecule, the “Sensitivity of UMRC compared with U373 (in words)” value in series [2] is on record as “less sensitive”.

For the molecule `C[C@@]12C(=O)OC(=O)[C@]1(C)[C@H]1CC[C@@H]2O1` [cantharidin], the “Inhibition of PP2A activity (in words)” value with PP2A is given as “inhibit the activity of PP2A”. For the same molecule, the “Inhibition of PP1 activity (in words)” value with PP1 is listed as “to some extent”. For the same molecule, the “Urinary tract toxicity (in words)” value in [3] is reported as “toxic to the urinary tract”.

For `CN1CCN(C(=O)C2C(C(=O)O)[C@H]3CC[C@@H]2O3)CC1` (stereo partly drawn) [compound LB-1], in the series with GBM cell line U373 (setting [7]), the IC50 amounted to 3 µM. Also, the activity at 1 µM in the series on GBM cell line U373 (Homo sapiens, U373 MG, read-out: Percent of Control, Observed, U373, LB-1 1 uM alone (Table 1)) came out at 78%. For the same molecule, the “Percent of Control, Observed” value in the series with GBM cell line U373 (U373, LB-1 1 μM alone (Table 3)) is 97.9 +/− 1.0% of Control; in the series on GBM cell line U373 (U373, LB-1 5 μM alone), 52.5 +/− 2.9% of Control. For the same molecule, the “Inhibition of U373 growth” value in the series on GBM cell line U373 (U373) is reported as “modest inhibition of growth”.

`O=C1SC(=O)[C@H]2[C@@H]1[C@@H]1CC[C@H]2O1` [endothal thioanhydride]: in the series with GBM cell line U373 (setting [8]), the IC50 was 2.5 µM. Moreover, in the series on GBM cell line U373 (U373), the “Inhibition of U373 growth” value is reported as “most potent inhibitor of GBMs in vitro; also recorded: greatest inhibition of growth”. In [1], the “Sensitivity of MCF-7 compared with U373 (in words)” value is listed as “as sensitive as U373”. Also, the “Sensitivity of UMRC compared with U373 (in words)” value in series [2] is “less sensitive”. The “Inhibition of PP2A activity (in words)” value with PP2A is listed as “inhibit the activity of PP2A”. In addition, the “Inhibition of PP1 activity (in words)” value with PP1 is given as “to some extent”. For the same molecule, the “Liver toxicity (in words)” value in series [3] (mice) is on record as “toxic to the liver of mice”.

In the case of `O=C(O)C1C2CCC(O2)C1C(=O)O` (stereo not drawn) [endothal], the IC50 in the series with GBM cell line U373 (setting [7]) is 15 µM. In addition, the activity at 1 µM in the series with GBM cell line U373 (Homo sapiens, U373 MG, read-out: Percent of Control, U373, endothal 1 μM, 13-cis retinoic acid none) came to 100%. Besides, the activity at 5 µM in the series on GBM cell line U373 (Homo sapiens, U373 MG, read-out: Percent of Control, U373, endothal 5 μM, 13-cis retinoic acid none) is 96%. Moreover, the activity at 10 µM in the series with GBM cell line U373 (Homo sapiens, U373 MG, read-out: Percent of Control, U373, endothal 10 μM, 13-cis retinoic acid none) was 76%. The “Percent of Control, Observed” value in the series on GBM cell line U373 (U373, END 10 uM alone) amounted to 65%. Also, the “Percent of Control” value with GBM cell line U373 (U373, endothal 10 μM, 13-cis retinoic acid none) was 73%. Moreover, the “Inhibition of U373 growth” value in the series on GBM cell line U373 (U373) is “modest inhibition of growth”. Besides, in [1], the “Inhibition of MCF-7 growth (in words)” value is “showed an inhibition in growth” and the “Sensitivity of MCF-7 compared with U373 (in words)” value is given as “as sensitive as U373”. Further, the “Sensitivity of UMRC compared with U373 (in words)” value in series [2] is recorded as “less sensitive”. In addition, the “Inhibition of PP2A activity (in words)” value in the series on PP2A is on record as “inhibit the activity of PP2A”. Besides, the “Inhibition of PP1 activity (in words)” value with PP1 was “to some extent”.

Regarding `O=C1OC(=O)[C@H]2[C@@H]1[C@H]1CC[C@H]2O1` [norcantharidin], in the series with GBM cell line U373 (setting [8]), the IC50 was 12 µM. The “Sensitivity of MCF-7 compared with U373 (in words)” value in series [1] is listed as “as sensitive as U373”. Moreover, the “Sensitivity of UMRC compared with U373 (in words)” value in series [2] is reported as “less sensitive”. The 1-year survival in the series with primary hepatoma (244 patients with primary hepatoma, historical controls 17%) was 30%. The “Life span of patients with primary hepatoma” value in the series with primary hepatoma (244 patients, historical controls on standard chemotherapy 4.7 months) is 11.1 months. In addition, the “White blood cell production (in words)” value in series [4] is reported as “stimulates white blood cell production”. Further, the “Relative toxicity in vivo (in words)” value in [3] (compared among endothal thioanhydride, norcantharidin, endothal) is “falling in between”. Moreover, the “Urinary tract toxicity (in words)” value in series [3] is reported as “little or no urinary tract toxicity”.

In the case of `C=C1[C@@H](O)[C@@H]2O[C@]3(CC[C@H](/C=C/[C@@H](C)[C@@H]4CC(C)=C[C@@]5(O[C@H](C[C@@](C)(O)C(=O)O)CC[C@H]5O)O4)O3)CC[C@H]2O[C@@H]1[C@@H](O)C[C@H](C)[C@H]1O[C@@]2(CCCCO2)CC[C@H]1C` [okadaic acid], the “Course of cell counts over time (in words)” value in the series on GBM cell line U343 MG-A (16 days) is reported as “monotonically increased”. Moreover, the “Effect on cell growth (in words)” value in the series on GBM cell line U343 MG-A (16 days (FIG. 2C)) is reported as “modest effect on cell growth”.

Regarding `CCCC(CCC)C(=O)O` [valproic acid], in the series with GBM cell line U373 (U373), the “Inhibition of U373 growth” value is recorded as “dose dependent activity” and the “Concentration range of activity against U373 (in words)” value was “in the mM range”. Moreover, in series [5], the “Serum concentration tolerated in humans” value is approximately 1000 µM.

B1: CNTF: ciliary neurotrophic factor, agent shown to induce astrocytic differentiation of neural stem cells in vitro (protein, UniProt P26441 1-200, looked up)
Ciliary neurotrophic factor: MAFTEHSPLTPHRRDLCSRSIWLARKIRSDLTALTESYVKHQGLNKNINLDSADGMPVASTDQWSELTEAERLQENLQAYRTFHVLLARLLEDQQVHFTPTEGDFHQAIHTLLLQVAAFAYQIEELMILLEYKIPRNEADGMPINVGDGGLFEKKLWGLKVLQELSQWTVRSIHDLRFISSHQTGIPARGSHYIANNKKM
For B1, the “GFAP expression in BTSC (in words)” value in [6] (BTSC cultured with CNTF, 2-DGE and LCMS (FIG. 2A)) is given as “began to express GFAP”. For the same molecule, the “Subcellular localization of N-CoR in BTSC (in words)” value in series [6] (Western blot of cytoplasmic fraction of CNTF-treated BTSC (FIG. 2B)) is listed as “translocation of N—CoR to the cytoplasm”. Besides, in series [6] (following CNTF stimulation), the “Time of peak cytoplasmic N-CoR and GFAP expression” value worked out at 7 days.
